Data taken from patent US20250170111A1, “PYRIDINE BASED CHALCONE ANALOGS AS THERAPEUTIC AGENTS AND USE THEREOF” (QATAR UNIVERSITY, priority 2023, published 2025).
Like-named read-outs stand apart in the source and are kept apart here.

What was measured:
PC3 and DU145 [1] = assay: Wound healing assay, PC3 and DU145; conditions: both cell lines; significant from 5 μM in PC3
DU145 [2] = assay: Cell cycle analysis (PI flow cytometry), DU145; type: cell-based, human; conditions: DU145, 48 hours; not statistically significant (P>0.05)
Procedure: Cells were seeded in 100 mm Petri dishes at a density of 1.5 million cells/dish and incubated in RPMI supplemented with 10% FBS overnight at 37° C. Complete culture media was then removed, and cells were starved in serum serum-free for 16 hours to synchronize cells at the G0/G1 phase of the cell cycle. Subsequently, cells were treated with the compounds 13, 15, and 16 or docetaxel for 48 hours. After treatment, floating and adherent cells were collected, washed with ice-cold PBS and centrifuged at 500 g for 10 minutes at 4° C. Next, cells were fixed with ice-cold 70% ethanol added drop wisely while vertexing and stored at −20° C. for at least 24 hours. On the day of analysis, cells were pelleted (centrifuged at 800 g for 10 minutes at 4° C.), washed twice with ice-cold PBS and counted. Around one million cells of each sample were resuspended in 500 μl of FxCycle PI/RNase Staining Solution® (Thermo Fisher Scientific, USA) supplemented with 200 μg/ml RNase and incubated for 50 minutes at 37° C. in a shaking water bath, protected from light. Following incubation, cells were immediately analyzed by BD FACSAria™ II Flow Cytometer, at least 50,000 events were acquired for each sample. The proportion of cells in each cell cycle phase: […]

JNK1/2/3, ERK1/2, Akt = assay: Western blot of JNK, ERK and AKT-related biomarkers in PC3; conditions: PC3 cell line
PC3 and DU145 [3] = assay: Morphological examination, PC3 and DU145; type: cell-based, human; conditions: 5 μM
Procedure: Cells were seeded in 6 wells plate at a density of 150,000-200,000 cells/well and were incubated overnight. Then, cells were treated with the synthesized compounds at 5-10 μM concentration for 48 hours. Morphological changes were monitored using a DMi8 inverted microscope (Leica, Germany) and images were captured with a Leica MC170 HD camera.
The induction of apoptosis in cancer cells has been widely considered an important criterion in developing anticancer drugs. To confirm whether the synthesized compounds could reduce cell viability and induce apoptosis in PC3 and DU145, prostate cancer cells were treated with compounds 1-16 at 10 μM concentrations for 48 hours. Cells were examined for the formation of apoptotic bodies or death by phase-contrast microscopy (FIGS. 21 and 22). More importantly, cells were monitored for characteristic changes in cell morphology as they can provide insight into cell differentiation, invasiveness, survival, and genetic alterations.

PC3 and DU145 [4] = assay: Alamar Blue cell viability, AR-negative PCa cell lines (stated for both); conditions: Homo sapiens, DU-145, read-out: IC50 against PC3 and DU145 cell lines
DU145 [5] = assay: Soft agar colony formation assay, DU145; type: cell-based, human; design: average size of detected colonies, DU145: unit not given here; conditions: 10 μM
Procedure: (§1) Anchorage-independent growth, a characteristic of transformed cells that correlate with in vivo tumorigenic potential, was assessed by soft agar assay. First, a 2% noble agar (Sigma-Aldrich) stock solution was prepared in deionized and autoclaved water. […] After 14 days, the average number of colonies in each well was counted manually under the microscope and confirmed by ImageJ; only colonies with an area larger than […] were counted to avoid the inclusion of non-proliferating dead cells. Besides, the size of colonies in each treatment condition was measured by ImageJ from at least six random fields per well.

PC3 [6] = assay: Alamar Blue cell viability assay, PC3
E-cadherin = assay: Western blot of EMT-related biomarkers in DU145; conditions: DU145 cells
DU145 [7] = assay: Alamar Blue cell viability assay, DU145; conditions: Homo sapiens, DU-145, 48 h
[8] = system: primary human dental bulb cells (ND); assay: Alamar Blue cell viability, normal primary dental cells; conditions: 48 hours, Mean ± SEM
PC3 and DU145 [9] = assay: Soft agar colony formation assay, PC3 and DU145 (stated for both); type: cell-based, human; conditions: 5 and 10 μM, 14 days, both cell lines
Procedure: as §1

PC3 [10] = assay: Soft agar colony formation assay, PC3; type: cell-based, human; design: average size of detected colonies, PC3: unit not given here; conditions: 10 μM
Procedure: as §1

CAM of chicken embryos = assay: Chorioallantoic membrane (CAM) angiogenesis assay; type: in vivo; conditions: in ovo, 48 hours post-treatment, vs control
Procedure: Fertilized white leghorn chicken eggs were obtained from Arab […] for Poultry Production, Doha, Qatar. Eggs were incubated in a rotary humidified MultiQuip Incubator at 37° C. with 60% humidity. Ethics approval was obtained from Institutional Animal Care & Use Committee and Institutional Bio-safety committee at Qatar University. […] Briefly, eggshells were disinfected with ethanol and a small opening was made in the shell over the air sac. Next, 200 μl of 1×PBS was added and the shell membrane was carefully removed. […] Subsequently, opened windows were sealed and the eggs were returned to a stationary incubator (FIG. 11). The effect of compounds on angiogenesis was monitored for 48 hours post-treatment and microscopic images of exposed (under coverslip) and unexposed area in each embryo were captured at equivalent magnification. Images were then analyzed using AngioTool software using the following parameters: vessel diameter thresholds at, vessel thickness at 7 and 10, removed small particles at 60, and filled holes at 183. The difference in blood vessel formation between treated and untreated embryos was assessed based on average vessel length, vessel percentage area and the total number of blood vessel junctions. […]

DU145 [11] = assay: Annexin V / 7-AAD apoptosis assay, DU145; type: cell-based, human; conditions: 48 hours
Procedure: (§2) Cellular apoptosis was assessed by PE Annexin V apoptosis Detection Kit (BDPharmingen, USA) as per the manufacturer's protocol. Briefly, cells were seeded in 100 mm Petri dishes at a density of 1.5 million cells/dish and incubated overnight. […] Adherent and floating cells were then harvested by trypsin, washed twice by PBS, resuspended in binding buffer and stained with Phycoerythrin (PE) conjugated Annexin-V, 7-AAD or both stains for 15 minutes. After staining, samples were analyzed by BD FACSAria™ II Flow Cytometer and FlowJo software. First, the cell population, excluding debris, was gated with forward scatter (FSC-A) and side scatter (SSC-A). Then, doublets were excluded using FSC-height and FSC-width plots. […] Quad Gates were used to calculate the percentage of viable cells (annexin V low, 7-AAD low), early pro-apoptotic cells (annexin V high, 7-AAD low) and late apoptosis/dead cells (annexin V high, 7-AAD high).

Bax, Bcl-2 = assay: Western blot of apoptosis-related proteins in PC3 and DU145; conditions: PC3 and DU145, 48 hours of treatment
PC3 [12] = assay: Annexin V / 7-AAD apoptosis assay, PC3; type: cell-based, human; conditions: 48 hours
Procedure: as §2

[13] = 14 days, in comparison to control

## COc1cccc(C(=O)/C=C/c2cccc(-c3ccsc3)n2)c1 [Compound 16, (E)-1-(3-methoxyphenyl)-3-(6-(thiophen-3-yl)pyridin-2-yl) prop-2-en-1-one]
PC3 and DU145 [1]
  wound closure: dose-dependent reduction in wound closure
DU145 [2]
  effect on cell cycle distribution: slight accumulation in G2/M and sub G1 phases
JNK1/2/3, ERK1/2, Akt
  expression of JNK1/2/3, ERK1/2, Akt and phosphorylated forms: significantly reduced the expression of JNK1/2/3 and phosphorylated ERK1/2
PC3 and DU145 [3]
  effect on cell morphology: increased cell detachment, the formation of apoptotic bodies, and cell shrinkage
PC3 and DU145 [4]
  IC50: 4.32 to 6.47 µM
DU145 [5]; [13]
  reduction in number of colonies, DU145: 84.9%
DU145 [5]; control 196.0
  average size of detected colonies, DU145: 18.7
PC3 [6]; 2.5 μM
  reduction in cell viability of PC3: 47.5%
PC3 [6]; read-out: PC3 IC50, 48 hours, Mean ± SEM of three independent experiments
  IC50: 4.32 ± 0.37 µM
E-cadherin
  expression of E-cadherin: significantly upregulate the expression of E-cadherin
DU145 [7]; read-out: DU145 IC50
  IC50: 5.2 ± 0.46 µM
DU145 [7]; read-out: IC50 against DU145
  IC50: 5.2 µM
DU145 [7]; read-out: reduction in cell viability of DU145
  cytotoxicity at 10 µM: 81%
[8]
  ND LD50: 24.67 ± 1.03 µM
PC3 and DU145 [9]
  colony formation in soft agar (number and size): significant reduction in both the total number of colonies and average colony size
PC3 [10]; [13]
  reduction in number of colonies, PC3: 82.8%
PC3 [10]; control 583.2
  average size of detected colonies, PC3: 20.0
CAM of chicken embryos
  effect on angiogenesis of the CAM: significant reduction in average vessel length, a total number of junctions, and vessel area
DU145 [11]
  induction of apoptosis in DU145: 47.8%
Bax, Bcl-2
  Bax/Bcl-2 expression: significant increase in Bax/Bcl-2 ratio
PC3 [12]
  induction of apoptosis in PC3: 34.7%
